Columns and labels:
[1] = biological target: Sodium-dependent noradrenaline transporter (Homo sapiens, UniProt P23975); assay: biochemical
Description: Displacement of [3H]noradrenaline from human NET receptor expressed in HEK293 cells by scintillation counting

[2] = biological target: Sodium-dependent serotonin transporter (Homo sapiens, UniProt P31645); assay: biochemical
Description: Displacement of [3H]5HT from human 5HT transporter expressed in HEK293 cells by scintillation counting

[3] = biological target: Sodium-dependent dopamine transporter (Homo sapiens, UniProt Q01959); assay: biochemical
Description: Displacement of [3H]dopamine from human DAT receptor expressed in HEK293 cells by scintillation counting

in vitro = conditions: human, liver microsomes
Description: Intrinsic clearance in human liver microsomes

[4] = biological target: Voltage-gated inwardly rectifying potassium channel KCNH2 (Homo sapiens, UniProt Q12809)
Chain of Voltage-gated inwardly rectifying potassium channel KCNH2 (Q12809 whole entry): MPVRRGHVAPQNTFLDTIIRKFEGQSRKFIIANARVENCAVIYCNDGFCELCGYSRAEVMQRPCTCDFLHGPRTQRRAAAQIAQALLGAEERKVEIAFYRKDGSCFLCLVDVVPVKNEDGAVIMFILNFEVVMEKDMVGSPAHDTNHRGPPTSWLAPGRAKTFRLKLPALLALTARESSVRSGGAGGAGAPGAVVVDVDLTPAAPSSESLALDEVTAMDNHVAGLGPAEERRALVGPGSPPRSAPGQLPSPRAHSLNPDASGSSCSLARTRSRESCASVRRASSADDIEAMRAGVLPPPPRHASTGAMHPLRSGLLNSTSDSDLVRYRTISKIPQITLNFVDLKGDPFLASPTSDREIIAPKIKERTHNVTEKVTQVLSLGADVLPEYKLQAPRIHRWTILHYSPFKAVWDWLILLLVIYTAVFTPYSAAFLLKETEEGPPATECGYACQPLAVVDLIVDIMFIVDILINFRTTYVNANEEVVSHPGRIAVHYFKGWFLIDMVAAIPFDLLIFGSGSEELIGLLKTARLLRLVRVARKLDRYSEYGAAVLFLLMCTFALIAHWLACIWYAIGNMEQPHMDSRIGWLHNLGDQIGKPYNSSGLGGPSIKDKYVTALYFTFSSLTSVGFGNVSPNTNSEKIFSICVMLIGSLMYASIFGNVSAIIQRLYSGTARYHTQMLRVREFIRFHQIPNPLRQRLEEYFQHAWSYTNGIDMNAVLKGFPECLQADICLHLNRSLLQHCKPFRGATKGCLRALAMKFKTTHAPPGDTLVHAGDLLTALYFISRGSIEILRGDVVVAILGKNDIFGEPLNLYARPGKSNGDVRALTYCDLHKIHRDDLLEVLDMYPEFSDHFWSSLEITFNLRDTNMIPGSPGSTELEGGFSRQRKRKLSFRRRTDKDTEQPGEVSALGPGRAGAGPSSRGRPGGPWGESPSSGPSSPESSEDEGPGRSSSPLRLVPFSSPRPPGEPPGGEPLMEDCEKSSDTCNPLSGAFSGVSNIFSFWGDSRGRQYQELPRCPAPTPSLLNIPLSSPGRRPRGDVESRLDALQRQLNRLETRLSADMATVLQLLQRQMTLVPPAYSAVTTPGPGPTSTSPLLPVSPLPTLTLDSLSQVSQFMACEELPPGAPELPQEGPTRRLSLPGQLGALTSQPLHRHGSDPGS

MDR1 [5] = assay: Permeability from basolateral to apical side of MDCK cells over expressing MDR1; format: ADME, cell-based, Canis lupus familiaris; conditions: dog
MDR1 [6] = assay: in vitro; conditions: dog, MDCK-MDR1
Description: Efflux ratio of permeability from apical to basolateral over basolateral to apical side in MDCK cells over expressing MDR1

MDR1 [7] = assay: Permeability from apical to basolateral side of MDCK cells over expressing MDR1; format: ADME, cell-based, Canis lupus familiaris; conditions: dog
Cytochrome P450 2D6 = Cytochrome P450 2D6 (Homo sapiens, UniProt P10635); assay: Inhibition of CYP2D6; format: ADME
Cytochrome P450 2C19 = Cytochrome P450 2C19 (Homo sapiens, UniProt P33261); assay: Inhibition of CYP2C19; format: ADME
Chain of Cytochrome P450 2C19 (P33261 whole entry): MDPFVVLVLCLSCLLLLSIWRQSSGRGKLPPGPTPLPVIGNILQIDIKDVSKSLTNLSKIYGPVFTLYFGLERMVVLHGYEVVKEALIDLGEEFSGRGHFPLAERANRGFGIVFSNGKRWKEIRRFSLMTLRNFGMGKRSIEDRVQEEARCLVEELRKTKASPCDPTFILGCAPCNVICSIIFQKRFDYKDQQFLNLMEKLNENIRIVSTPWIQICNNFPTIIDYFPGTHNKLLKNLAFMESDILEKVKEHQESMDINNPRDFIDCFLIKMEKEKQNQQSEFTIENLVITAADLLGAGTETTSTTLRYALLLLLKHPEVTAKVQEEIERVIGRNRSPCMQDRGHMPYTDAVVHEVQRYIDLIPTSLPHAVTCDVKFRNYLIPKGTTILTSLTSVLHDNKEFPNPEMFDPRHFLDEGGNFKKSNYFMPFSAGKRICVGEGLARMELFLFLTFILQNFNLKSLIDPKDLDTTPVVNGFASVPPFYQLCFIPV

Cytochrome P450 3A4 [8] = biological target: T1, Cytochrome P450 3A4 (Homo sapiens, UniProt P08684); assay: Inhibition of CYP3A4 using felodipine as a substrate; format: ADME
T1 sequence (P08684 whole entry): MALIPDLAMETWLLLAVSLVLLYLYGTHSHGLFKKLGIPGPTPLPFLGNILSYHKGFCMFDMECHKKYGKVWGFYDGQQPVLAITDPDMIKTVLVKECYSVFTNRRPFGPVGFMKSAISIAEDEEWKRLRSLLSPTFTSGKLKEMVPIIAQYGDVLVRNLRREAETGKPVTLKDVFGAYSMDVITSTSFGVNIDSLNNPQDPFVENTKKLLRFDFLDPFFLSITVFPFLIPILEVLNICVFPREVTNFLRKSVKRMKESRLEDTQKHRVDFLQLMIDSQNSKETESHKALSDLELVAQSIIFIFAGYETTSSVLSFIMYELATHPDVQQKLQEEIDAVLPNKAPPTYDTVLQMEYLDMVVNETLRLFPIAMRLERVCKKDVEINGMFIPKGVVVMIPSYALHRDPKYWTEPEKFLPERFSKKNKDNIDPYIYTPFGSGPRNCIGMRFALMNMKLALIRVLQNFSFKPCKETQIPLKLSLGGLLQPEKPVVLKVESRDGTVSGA

[9] = Dissociation constant, pKa of the compound; format: physicochemical
Plasma = assay: fCmax in Beagle dog plasma; format: ADME, organism-based, Canis lupus familiaris; conditions: in vivo
[10] = Binding affinity to sodium channel
Canis familiaris [11] = organism: Canis familiaris; assay: Increase in peak urethral pressure in Beagle dog; format: functional, Canis lupus familiaris, Urethra
[12] = Intrinsic clearance in human hepatocytes measured per million cells; format: ADME, cell-based, Liver, Hepatocyte
Cytochrome P450 1A2 = biological target: T2, Cytochrome P450 1A2 (Homo sapiens, UniProt P05177); assay: Inhibition of CYP1A2; format: ADME
T2 sequence (P05177 whole entry): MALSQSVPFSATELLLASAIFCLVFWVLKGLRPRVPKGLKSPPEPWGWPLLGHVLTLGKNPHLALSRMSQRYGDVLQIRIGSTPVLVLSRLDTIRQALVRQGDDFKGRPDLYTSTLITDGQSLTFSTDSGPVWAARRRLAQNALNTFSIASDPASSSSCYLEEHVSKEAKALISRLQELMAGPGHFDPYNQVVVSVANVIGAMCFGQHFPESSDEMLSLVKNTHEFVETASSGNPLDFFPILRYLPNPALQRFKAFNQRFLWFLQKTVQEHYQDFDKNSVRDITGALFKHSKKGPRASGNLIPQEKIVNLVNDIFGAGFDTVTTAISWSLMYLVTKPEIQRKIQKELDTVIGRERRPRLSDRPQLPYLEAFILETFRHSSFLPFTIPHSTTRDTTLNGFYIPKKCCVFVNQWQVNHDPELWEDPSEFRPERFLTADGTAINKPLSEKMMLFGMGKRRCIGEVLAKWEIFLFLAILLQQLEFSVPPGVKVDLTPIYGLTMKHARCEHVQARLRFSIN

Cytochrome P450 2C9 = Cytochrome P450 2C9 (Homo sapiens, UniProt P11712); assay: Inhibition of CYP2C9; format: ADME
Chain of Cytochrome P450 2C9 (P11712 whole entry): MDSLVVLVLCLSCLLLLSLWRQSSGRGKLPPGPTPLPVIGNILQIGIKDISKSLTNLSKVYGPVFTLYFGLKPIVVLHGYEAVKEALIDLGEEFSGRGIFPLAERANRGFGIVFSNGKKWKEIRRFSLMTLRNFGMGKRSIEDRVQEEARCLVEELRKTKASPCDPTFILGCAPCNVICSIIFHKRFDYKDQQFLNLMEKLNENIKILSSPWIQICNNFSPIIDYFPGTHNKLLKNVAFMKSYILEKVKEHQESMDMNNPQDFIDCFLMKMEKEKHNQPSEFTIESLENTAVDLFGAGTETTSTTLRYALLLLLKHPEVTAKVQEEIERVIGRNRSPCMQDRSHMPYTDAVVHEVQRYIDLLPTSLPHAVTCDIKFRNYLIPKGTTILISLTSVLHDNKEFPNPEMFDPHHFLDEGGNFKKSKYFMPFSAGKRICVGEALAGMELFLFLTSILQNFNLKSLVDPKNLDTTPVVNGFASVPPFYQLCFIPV

Rattus norvegicus [13] = assay: Toxicity in rat assessed as effect on locomotor activity at 15 mg/kg, po after 14 days; format: organism-based; parameters: dose 15 mg/kg, route oral; conditions: in vivo, 336 h
[14] = Apparent permeability from basolateral to apical side of human Caco-2 cells at 10 uM; format: ADME, cell-based
[15] = Lipophilicity, log D at pH 7.4; format: physicochemical; conditions: buffer
Canis familiaris [16] = organism: Canis familiaris; assay: Toxicity in Beagle dog after 14 days; format: organism-based, Canis lupus familiaris; conditions: in vivo, 336 h
Rattus norvegicus [17] = organism: Rattus norvegicus; assay: Toxicity in rat after 14 days; format: organism-based; conditions: in vivo, 336 h
[18] = Binding affinity to sigma opioid receptor
Cytochrome P450 3A4 [19] = biological target: T1, Cytochrome P450 3A4; assay: Inhibition of CYP3A4 using midazolam as a substrate; format: ADME
Cytochrome P450 3A4 [20] = biological target: T1, Cytochrome P450 3A4; assay: Inhibition of CYP3A4 using testosterone as a substrate; format: ADME
[21] = biological target: Kappa-type opioid receptor (Homo sapiens, UniProt P41145); assay: Binding affinity to kappa opioid receptor
Chain of Kappa-type opioid receptor (P41145 whole entry): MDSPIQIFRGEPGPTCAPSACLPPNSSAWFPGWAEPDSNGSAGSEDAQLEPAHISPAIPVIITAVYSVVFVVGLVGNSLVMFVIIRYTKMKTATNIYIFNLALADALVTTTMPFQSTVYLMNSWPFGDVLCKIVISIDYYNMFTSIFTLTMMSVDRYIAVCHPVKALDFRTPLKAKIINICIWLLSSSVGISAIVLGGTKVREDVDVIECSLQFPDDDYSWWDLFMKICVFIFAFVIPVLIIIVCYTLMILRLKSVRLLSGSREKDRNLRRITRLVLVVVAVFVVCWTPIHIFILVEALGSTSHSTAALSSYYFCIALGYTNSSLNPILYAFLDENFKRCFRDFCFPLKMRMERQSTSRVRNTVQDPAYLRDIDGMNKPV

[22] = Apparent permeability from apical to basolateral side of human Caco-2 cells at 10 uM; format: ADME, cell-based
[23] = Ratio of drug level from CSF to plasma in Beagle dog; format: ADME, Canis lupus familiaris

Chain of Sodium-dependent serotonin transporter (P31645 whole entry): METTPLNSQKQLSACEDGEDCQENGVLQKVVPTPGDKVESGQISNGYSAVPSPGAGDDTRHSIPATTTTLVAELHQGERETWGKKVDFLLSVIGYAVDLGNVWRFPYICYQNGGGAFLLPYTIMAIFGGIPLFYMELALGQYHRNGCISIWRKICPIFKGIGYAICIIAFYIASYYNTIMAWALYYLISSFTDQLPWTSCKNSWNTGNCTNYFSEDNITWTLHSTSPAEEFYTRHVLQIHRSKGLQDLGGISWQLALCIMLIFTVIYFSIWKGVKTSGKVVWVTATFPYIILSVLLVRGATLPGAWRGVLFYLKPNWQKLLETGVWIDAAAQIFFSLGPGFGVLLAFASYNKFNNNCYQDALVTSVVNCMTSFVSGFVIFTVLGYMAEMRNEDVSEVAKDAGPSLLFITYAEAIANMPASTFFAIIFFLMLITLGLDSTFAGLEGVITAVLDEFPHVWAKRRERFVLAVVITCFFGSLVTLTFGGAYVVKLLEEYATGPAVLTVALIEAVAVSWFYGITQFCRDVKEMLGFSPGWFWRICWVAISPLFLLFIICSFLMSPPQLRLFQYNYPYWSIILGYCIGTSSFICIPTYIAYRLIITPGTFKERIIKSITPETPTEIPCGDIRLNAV
Chain of Sodium-dependent noradrenaline transporter (P23975 whole entry): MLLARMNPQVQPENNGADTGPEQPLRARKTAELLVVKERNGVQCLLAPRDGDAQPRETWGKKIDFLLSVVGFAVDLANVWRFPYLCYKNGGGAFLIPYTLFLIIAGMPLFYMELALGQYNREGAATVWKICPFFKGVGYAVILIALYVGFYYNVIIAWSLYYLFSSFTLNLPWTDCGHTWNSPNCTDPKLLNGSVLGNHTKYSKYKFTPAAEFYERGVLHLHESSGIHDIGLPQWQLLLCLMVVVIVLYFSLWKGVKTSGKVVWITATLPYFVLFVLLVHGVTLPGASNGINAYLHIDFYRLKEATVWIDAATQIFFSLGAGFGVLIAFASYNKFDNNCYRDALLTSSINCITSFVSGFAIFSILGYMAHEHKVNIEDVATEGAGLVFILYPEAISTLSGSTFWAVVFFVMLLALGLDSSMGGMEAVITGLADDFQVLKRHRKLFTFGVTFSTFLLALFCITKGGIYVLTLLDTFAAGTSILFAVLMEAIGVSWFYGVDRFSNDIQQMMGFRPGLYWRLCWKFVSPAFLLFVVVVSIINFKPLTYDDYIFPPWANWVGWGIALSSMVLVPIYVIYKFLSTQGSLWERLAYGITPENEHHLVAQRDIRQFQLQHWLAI
Chain of Sodium-dependent dopamine transporter (Q01959 whole entry): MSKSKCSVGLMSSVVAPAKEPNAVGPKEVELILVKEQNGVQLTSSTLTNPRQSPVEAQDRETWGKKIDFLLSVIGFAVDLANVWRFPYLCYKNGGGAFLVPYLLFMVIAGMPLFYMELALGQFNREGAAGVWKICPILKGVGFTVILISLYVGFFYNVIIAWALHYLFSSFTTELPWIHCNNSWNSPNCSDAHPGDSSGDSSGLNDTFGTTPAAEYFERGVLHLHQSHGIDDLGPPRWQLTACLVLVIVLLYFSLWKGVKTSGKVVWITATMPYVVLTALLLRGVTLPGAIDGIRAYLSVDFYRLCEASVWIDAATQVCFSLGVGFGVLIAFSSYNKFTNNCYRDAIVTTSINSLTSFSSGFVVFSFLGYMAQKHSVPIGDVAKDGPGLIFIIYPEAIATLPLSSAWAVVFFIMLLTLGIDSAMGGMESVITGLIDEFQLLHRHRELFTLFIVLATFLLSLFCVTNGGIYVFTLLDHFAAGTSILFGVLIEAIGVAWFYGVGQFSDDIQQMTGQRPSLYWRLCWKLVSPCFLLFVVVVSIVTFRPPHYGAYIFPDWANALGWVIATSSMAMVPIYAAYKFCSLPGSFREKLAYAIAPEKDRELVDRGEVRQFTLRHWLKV

SMILES: CC(C)CN(C(=O)c1cccc(C(F)(F)F)c1Cl)[C@H]1CCNC1
- Ki [1]: 103 nM
- Ki [2]: 11 nM
- Ki [3]: 2070 nM

SMILES: CC(C)CN(C(=O)c1cc(Cl)ccc1Cl)[C@H]1CCNC1
- Ki [1]: 198 nM
- Ki [2]: 54 nM
- microsomal CLint (in vitro): 29 µL/min/mg
- Ki [3]: 2430 nM
- IC50 [4]: 19800 nM

SMILES: CC(C)CN(C(=O)c1cccc(Cl)c1F)[C@H]1CCNC1
- Ki [1]: 139 nM
- Ki [2]: 10 nM
- microsomal CLint (in vitro): 26 µL/min/mg
- Ki [3]: 2560 nM
- IC50 [4]: > 10000 nM

SMILES: CC(C)CN(C(=O)c1cccc(F)c1C(F)(F)F)[C@H]1CCNC1
- Ki [1]: 26 nM
- Ki [2]: 25 nM
- IC50 [4]: > 10000 nM

SMILES: CC(C)CN(C(=O)c1ccc(F)cc1Cl)[C@H]1CCNC1
- Ki [1]: 263 nM
- Ki [2]: 7 nM
- microsomal CLint (in vitro): 20 µL/min/mg
- Ki [3]: 2540 nM

SMILES: Cc1c(Cl)cccc1C(=O)N(CC(C)C)[C@H]1CCNC1
- Ki [1]: 29 nM
- Ki [2]: 3 nM
- microsomal CLint (in vitro): 26 µL/min/mg
- Ki [3]: 516 nM
- IC50 [4]: 52400 nM

SMILES: Cc1c(F)cccc1C(=O)N(CC(C)C)[C@H]1CCNC1
- Ki [1]: 69 nM
- Ki [2]: 13 nM
- microsomal CLint (in vitro): 21 µL/min/mg
- Ki [3]: 1610 nM

SMILES: CC(C)CN(C(=O)c1cccc(F)c1Cl)[C@H]1CCNC1
- Ki [1]: 67 nM
- Ki [2]: 15 nM
- microsomal CLint (in vitro): 20 µL/min/mg
- Ki [3]: 2370 nM

SMILES: CC(C)CN(C(=O)c1ccccc1C(C)C)[C@H]1CCNC1
- Ki [1]: 65 nM
- Ki [2]: 1320 nM
- microsomal CLint (in vitro): < 7 µL/min/mg
- Ki [3]: 3590 nM
- IC50 [4]: 12900 nM

SMILES: CC(C)CN(C(=O)c1cccc(Cl)c1Cl)[C@@H]1CCNC1
- Ki [1]: 169 nM
- Ki [2]: 13 nM
- Ki [3]: 3090 nM

SMILES: CCN(C(=O)c1cccc(Cl)c1Cl)[C@H]1CCNC1
- Ki [1]: 217 nM
- Ki [2]: 29 nM
- microsomal CLint (in vitro): < 13 µL/min/mg
- Ki [3]: 1090 nM
- IC50 [4]: > 20000 nM

SMILES: CC(C)CN(C(=O)c1cc(Cl)cc(Cl)c1)[C@H]1CCNC1
- Ki [1]: 43 nM
- Ki [2]: 6 nM
- Ki [3]: 3070 nM
- IC50 [4]: > 10000 nM

SMILES: CC(C)CN(C(=O)c1ccc(Cl)c(Cl)c1)[C@H]1CCNC1
- Ki [1]: 50 nM
- Ki [2]: 4 nM
- microsomal CLint (in vitro): 36 µL/min/mg
- Ki [3]: 430 nM

SMILES: CC(C)CN(C(=O)c1cccc(Cl)c1)[C@H]1CCNC1
- Ki [1]: 135 nM
- Ki [2]: 19 nM
- microsomal CLint (in vitro): 23.5 µL/min/mg
- Ki [3]: 1330 nM

SMILES: O=C(c1cccc(Cl)c1Cl)N(C1=CCOC=C1)[C@H]1CCNC1
- Ki [1]: 10 nM
- Ki [2]: 6 nM
- microsomal CLint (in vitro): 13 µL/min/mg
- Papp B→A (MDR1 [5]): 20 ×10⁻⁶ cm/s
- efflux ratio (MDR1 [6]): 20
- Papp A→B (MDR1 [7]): 1 ×10⁻⁶ cm/s
- Ki [3]: 945 nM
- IC50 [4]: > 40000 nM

SMILES: O=C(c1cccc(Cl)c1Cl)N(c1ccccc1)[C@H]1CCNC1
- Ki [1]: 11 nM
- Ki [2]: 3 nM
- microsomal CLint (in vitro): < 25 µL/min/mg
- Ki [3]: 501 nM
- IC50 [4]: 7920 nM

SMILES: CC(C)CN(C(=O)c1ccc(Cl)cc1Cl)[C@H]1CCNC1
- Ki [1]: 37 nM
- Ki [2]: 3 nM
- microsomal CLint (in vitro): 26 µL/min/mg
- Ki [3]: 2400 nM

SMILES: CCCN(C(=O)c1cccc(Cl)c1Cl)[C@H]1CCNC1
- Ki [1]: 36 nM
- Ki [2]: 16 nM
- microsomal CLint (in vitro): < 7 µL/min/mg
- Ki [3]: 630 nM
- IC50 [4]: > 18600 nM

SMILES: CC(C)CN(C(=O)c1cccc(Cl)c1Cl)[C@H]1CCNC1
- IC50 (Cytochrome P450 2D6): > 30000 nM
- IC50 (Cytochrome P450 2C19): > 30000 nM
- Ki [1]: 21 nM
- IC50 (Cytochrome P450 3A4 [8]): > 30000 nM
- Ki [2]: 6 nM
- pKa [9]: 10
- fCmax (Plasma): 5 nM
- microsomal CLint (in vitro): 11 µL/min/mg
- IC50 [10]: 3600 nM
- Activity (Canis familiaris [11]): 35%
- hepatocyte CLint [12]: 3 µL/min/1e6 cells
- IC50 (Cytochrome P450 1A2): > 30000 nM
- IC50 (Cytochrome P450 2C9): > 30000 nM
- Papp B→A (MDR1 [5]): 43 ×10⁻⁶ cm/s
- Activity (Rattus norvegicus [13]): Non-toxic
- efflux ratio (MDR1 [6]): 2.7
- Papp B→A at 10 µM [14]: 26 ×10⁻⁶ cm/s
- logD [15]: 0.6
- Activity (Canis familiaris [16]): Non-toxic
- Activity (Rattus norvegicus [17]): Non-toxic
- Papp A→B (MDR1 [7]): 16 ×10⁻⁶ cm/s
- IC50 [18]: 5100 nM
- IC50 (Cytochrome P450 3A4 [19]): > 30000 nM
- Ki [3]: 544 nM
- IC50 (Cytochrome P450 3A4 [20]): > 30000 nM
- IC50 [21]: 5800 nM
- Papp A→B at 10 µM [22]: 12 ×10⁻⁶ cm/s
- IC50 [4]: 20000 nM

SMILES: O=C(c1cccc(Cl)c1Cl)N(CC(F)(F)F)[C@H]1CCNC1
- Ki [1]: 95 nM
- Ki [2]: 39 nM
- microsomal CLint (in vitro): < 8 µL/min/mg
- Ki [3]: 3730 nM

SMILES: O=C(c1cccc(Cl)c1Cl)N(CCC1CC1)[C@H]1CCNC1
- Ki [1]: 24 nM
- Ki [2]: 15 nM
- microsomal CLint (in vitro): 26 µL/min/mg
- Ki [3]: 404 nM
- IC50 [4]: 7140 nM

SMILES: CC(C)(C)CN(C(=O)c1cccc(Cl)c1Cl)[C@H]1CCNC1
- Ki [1]: 13 nM
- Ki [2]: 4 nM
- Ki [3]: 273 nM

SMILES: O=C(c1cccc(Cl)c1Cl)N(C1CCCC1)[C@H]1CCNC1
- Ki [1]: 11 nM
- Ki [2]: 6 nM
- microsomal CLint (in vitro): < 7 µL/min/mg
- Papp B→A (MDR1 [5]): 64 ×10⁻⁶ cm/s
- Papp A→B (MDR1 [7]): 10 ×10⁻⁶ cm/s
- Ki [3]: 983 nM

SMILES: CCC(CC)N(C(=O)c1cccc(Cl)c1Cl)[C@H]1CCNC1
- Ki [1]: 37 nM
- Ki [2]: 20 nM
- microsomal CLint (in vitro): 34 µL/min/mg
- Ki [3]: 2600 nM
- IC50 [4]: 7740 nM

SMILES: CC(C)C(=O)N(Cc1cccc(Cl)c1Cl)[C@H]1CCNC1
- Ki [1]: 52 nM
- Ki [2]: 9 nM
- microsomal CLint (in vitro): < 7.6 µL/min/mg
- Kp [23]: 0.1
- Papp B→A (MDR1 [5]): 64 ×10⁻⁶ cm/s
- efflux ratio (MDR1 [6]): 4.3
- Papp A→B (MDR1 [7]): 15 ×10⁻⁶ cm/s
- Ki [3]: 640 nM

— ChEMBL document CHEMBL1154203, “N-[(3S)-Pyrrolidin-3-yl]benzamides as novel dual serotonin and noradrenaline reuptake inhibitors: impact of small structural modifications on P-gp recognition and CNS penetration” (Bioorg Med Chem Lett, 2009)
